Data taken from PMC11137019, “G protein-specific mechanisms in the serotonin 5-HT2A receptor regulate psychosis-related effects and memory deficits” (Nature Communications, 2024).
Counter-ions that a name gives are not always drawn.

Target: T1, 5-HT2AR (CHO-5-HT2A cell membranes) (Homo sapiens, UniProt P28223)
T1 construct: gene HTR2A; membranes from CHO-5-HT2A cell line prepared in the authors' laboratory
Assay: [3H]ketanserin competition binding, CHO-5-HT2A membranes
Details: […] °C, […] min, orthosteric site

T1 sequence (P28223 whole entry): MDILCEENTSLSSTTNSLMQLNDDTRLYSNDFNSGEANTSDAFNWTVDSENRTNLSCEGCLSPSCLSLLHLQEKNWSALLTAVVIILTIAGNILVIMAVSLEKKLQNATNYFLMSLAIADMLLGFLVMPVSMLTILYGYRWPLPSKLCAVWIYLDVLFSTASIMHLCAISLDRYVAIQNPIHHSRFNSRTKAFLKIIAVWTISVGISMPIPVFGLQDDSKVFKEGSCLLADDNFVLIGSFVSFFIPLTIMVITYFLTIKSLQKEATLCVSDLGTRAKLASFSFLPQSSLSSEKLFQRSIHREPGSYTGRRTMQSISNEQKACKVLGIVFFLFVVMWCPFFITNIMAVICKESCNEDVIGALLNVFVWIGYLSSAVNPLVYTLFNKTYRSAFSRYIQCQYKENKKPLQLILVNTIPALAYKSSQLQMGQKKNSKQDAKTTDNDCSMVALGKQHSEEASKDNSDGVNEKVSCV

## NCCc1c[nH]c2ccc(-c3ccc4c(c3)OCCO4)cc12 [OTV1, 2-[5-(2,3-dihydro-1,4-benzodioxin-6-yl)-1H-indol-3-yl]ethan-1-amine Hydrochloride]
  pKi: Ligand binding affinities (pKi) are indicated for Nitro-I, Met-I, OTV1 and OTV2
